Measured values taken from PubChem BioAssay AID1919007 (Molecular Pharmacology Branch, DTP, NCI, 2023).

System: A498 complex spheroids with HUVEC/MSC, growth
Experiment: Anticancer human tumor A498 cell line growth inhibition [AhR];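 note: seven day exposure starting three days after spheroid seeding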;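 for viability, T/C: luminescence signal used as a surrogate for viable cells; luminescence viability scaled so 100% equals DMSO vehicle wells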
Settings: for IC50: curve of first compound; for viability, T/C: stronger effect = lower value
Outline: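 Spheroids combined tumor cells with HUVEC endothelial cells and human MSCs as stroma. AhR antagonists were paired with standard or investigational drugs, each dosed in half-log steps down from near clinical Cmax, or from 10 microM where Cmax was unknown.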

[1] = second compound 0.1 µM, first compound 0.00949 µM
[2] = second compound 0.1 µM, first compound 0.03 µM
[3] = second compound 0.1 µM, first compound 0.0949 µM
[4] = second compound 0.1 µM, first compound 0.3 µM
[5] = second compound 0.316 µM, first compound 0.00949 µM
[6] = second compound 0.316 µM, first compound 0.03 µM
[7] = second compound 0.316 µM, first compound 0.0949 µM
[8] = second compound 0.316 µM, first compound 0.3 µM
[9] = second compound 1 µM, first compound 0.00949 µM
[10] = second compound 1 µM, first compound 0.03 µM
[11] = second compound 1 µM, first compound 0.0949 µM
[12] = second compound 1 µM, first compound 0.3 µM
[13] = second compound 3.16 µM, first compound 0.00949 µM
[14] = second compound 3.16 µM, first compound 0.03 µM
[15] = second compound 3.16 µM, first compound 0.0949 µM
[16] = second compound 3.16 µM, first compound 0.3 µM
[17] = second compound 10 µM, first compound 0.00949 µM
[18] = second compound 10 µM, first compound 0.03 µM
[19] = second compound 10 µM, first compound 0.0949 µM
[20] = second compound 10 µM, first compound 0.3 µM

SMILES: CC1COCCN1c1cc(C2(S(C)(=N)=O)CC2)nc(-c2ccnc3[nH]ccc23)n1 (stereo not given) + Cc1cncc(-c2nc(NCCc3c[nH]c4ccccc34)c3ncn(C(C)C)c3n2)c1
- IC50 (second compound 0.1 µM): 3550 nM
- IC50 (second compound 0.316 µM): 2690 nM
- IC50 (second compound 1 µM): 2260 nM
- IC50 (second compound 3.16 µM): < 31.6 nM
- IC50 (second compound 10 µM): < 31.6 nM
- viability, T/C (second compound 0.1 µM, first compound 0.0316 µM): 97.8%
- viability, T/C (second compound 0.1 µM, first compound 0.1 µM): 98.7%
- viability, T/C (second compound 0.1 µM, first compound 0.316 µM): 90.4%
- viability, T/C (second compound 0.1 µM, first compound 1 µM): 81.9%
- viability, T/C (second compound 0.1 µM, first compound 3.16 µM): 52.5%
- viability, T/C (second compound 0.1 µM, first compound 10 µM): 23.1%
- viability, T/C (second compound 0.316 µM, first compound 0.0316 µM): 94.9%
- viability, T/C (second compound 0.316 µM, first compound 0.1 µM): 102%
- viability, T/C (second compound 0.316 µM, first compound 0.316 µM): 96.3%
- viability, T/C (second compound 0.316 µM, first compound 1 µM): 78.5%
- viability, T/C (second compound 0.316 µM, first compound 3.16 µM): 45.7%
- viability, T/C (second compound 0.316 µM, first compound 10 µM): 27.5%
- viability, T/C (second compound 1 µM, first compound 0.0316 µM): 86.8%
- viability, T/C (second compound 1 µM, first compound 0.1 µM): 92%
- viability, T/C (second compound 1 µM, first compound 0.316 µM): 87.5%
- viability, T/C (second compound 1 µM, first compound 1 µM): 68.2%
- viability, T/C (second compound 1 µM, first compound 3.16 µM): 42.9%
- viability, T/C (second compound 1 µM, first compound 10 µM): 23.4%
- viability, T/C (second compound 3.16 µM, first compound 0.0316 µM): 37.1%
- viability, T/C (second compound 3.16 µM, first compound 0.1 µM): 37.2%
- viability, T/C (second compound 3.16 µM, first compound 0.316 µM): 39.5%
- viability, T/C (second compound 3.16 µM, first compound 1 µM): 35.5%
- viability, T/C (second compound 3.16 µM, first compound 3.16 µM): 33.9%
- viability, T/C (second compound 3.16 µM, first compound 10 µM): 21.9%
- viability, T/C (second compound 10 µM, first compound 0.0316 µM): 4.97%
- viability, T/C (second compound 10 µM, first compound 0.1 µM): 6.89%
- viability, T/C (second compound 10 µM, first compound 0.316 µM): 5.25%
- viability, T/C (second compound 10 µM, first compound 1 µM): 5.47%
- viability, T/C (second compound 10 µM, first compound 3.16 µM): 5.09%
- viability, T/C (second compound 10 µM, first compound 10 µM): 9.27%

SMILES: Nc1ncn(C2CC(O)C(CO)S2)c(=O)n1 (stereo not given) + Cc1cncc(-c2nc(NCCc3c[nH]c4ccccc34)c3ncn(C(C)C)c3n2)c1
- IC50 (second compound 0.1 µM): > 300 nM
- IC50 (second compound 0.316 µM): > 300 nM
- IC50 (second compound 1 µM): > 300 nM
- IC50 (second compound 3.16 µM): < 0.949 nM
- IC50 (second compound 10 µM): < 0.949 nM
- viability, T/C (second compound 0.1 µM, first compound 0.000949 µM): 90.1%
- viability, T/C (second compound 0.1 µM, first compound 0.003 µM): 89.7%
- viability, T/C [1]: 92.5%
- viability, T/C [2]: 77.8%
- viability, T/C [3]: 73.7%
- viability, T/C [4]: 63.3%
- viability, T/C (second compound 0.316 µM, first compound 0.000949 µM): 94.1%
- viability, T/C (second compound 0.316 µM, first compound 0.003 µM): 104%
- viability, T/C [5]: 95%
- viability, T/C [6]: 86.9%
- viability, T/C [7]: 80.6%
- viability, T/C [8]: 68.3%
- viability, T/C (second compound 1 µM, first compound 0.000949 µM): 83.6%
- viability, T/C (second compound 1 µM, first compound 0.003 µM): 86%
- viability, T/C [9]: 80.4%
- viability, T/C [10]: 73.4%
- viability, T/C [11]: 75.2%
- viability, T/C [12]: 68.2%
- viability, T/C (second compound 3.16 µM, first compound 0.000949 µM): 32.3%
- viability, T/C (second compound 3.16 µM, first compound 0.003 µM): 33.6%
- viability, T/C [13]: 36.5%
- viability, T/C [14]: 27.1%
- viability, T/C [15]: 29.6%
- viability, T/C [16]: 28.2%
- viability, T/C (second compound 10 µM, first compound 0.000949 µM): 5.79%
- viability, T/C (second compound 10 µM, first compound 0.003 µM): 5.22%
- viability, T/C [17]: 5.53%
- viability, T/C [18]: 6.62%
- viability, T/C [19]: 4.93%
- viability, T/C [20]: 5.47%

SMILES: O=C(C=Cn1cnc(-c2cc(C(F)(F)F)cc(C(F)(F)F)c2)n1)NNc1cnccn1 + Cc1cncc(-c2nc(NCCc3c[nH]c4ccccc34)c3ncn(C(C)C)c3n2)c1
- IC50 (second compound 0.1 µM): 81.5 nM
- IC50 (second compound 0.316 µM): 105 nM
- IC50 (second compound 1 µM): 78.2 nM
- IC50 (second compound 3.16 µM): 72.4 nM
- IC50 (second compound 10 µM): < 9.49 nM
- viability, T/C [1]: 86.3%
- viability, T/C [2]: 73.7%
- viability, T/C [3]: 46.5%
- viability, T/C [4]: 30.3%
- viability, T/C (second compound 0.1 µM, first compound 0.949 µM): 25.3%
- viability, T/C (second compound 0.1 µM, first compound 3 µM): 26.6%
- viability, T/C [5]: 87.2%
- viability, T/C [6]: 81.1%
- viability, T/C [7]: 51.5%
- viability, T/C [8]: 30.9%
- viability, T/C (second compound 0.316 µM, first compound 0.949 µM): 30.8%
- viability, T/C (second compound 0.316 µM, first compound 3 µM): 22.2%
- viability, T/C [9]: 84.8%
- viability, T/C [10]: 73.2%
- viability, T/C [11]: 45.6%
- viability, T/C [12]: 27.9%
- viability, T/C (second compound 1 µM, first compound 0.949 µM): 25%
- viability, T/C (second compound 1 µM, first compound 3 µM): 24.6%
- viability, T/C [13]: 69.3%
- viability, T/C [14]: 67.6%
- viability, T/C [15]: 43.9%
- viability, T/C [16]: 30.1%
- viability, T/C (second compound 3.16 µM, first compound 0.949 µM): 24.2%
- viability, T/C (second compound 3.16 µM, first compound 3 µM): 23.2%
- viability, T/C [17]: 3.95%
- viability, T/C [18]: 5.26%
- viability, T/C [19]: 7.65%
- viability, T/C [20]: 6.47%
- viability, T/C (second compound 10 µM, first compound 0.949 µM): 8.27%
- viability, T/C (second compound 10 µM, first compound 3 µM): 11.1%
